# Data reported in patent publication US20170362287A1, “GPC3 EPITOPE PEPTIDES FOR TH1 CELLS AND VACCINES CONTAINING THE SAME” (ONCOTHERAPY SCIENCE, INC., priority 2014, published 2017).
# Entries after “also recorded” stand apart in the source; their conditions may differ.
# Key:
# [1] = system: GPC3-LPs-specific Th cell clones; assay: Cytokine assay of GPC3-LP-specific Th cell clones (Bio-Plex); format: cell-based, human; conditions: clones from HD10; 24 h restimulation with cognate peptide-pulsed autologous PBMC
# Protocol: GPC3-LPs-specific bulk Th cells or Th cell clones (3×10^4/well) were cultured in the presence of cognate peptides-pulsed autologous PBMC in 96-well culture plates. After 24 h, culture supernatants were collected and cytokine (IFN-gamma, TNF-αlfa, IL-2, GM-CSF, and MIP1beta) levels were measured using the Bio-Plea system (Bio-Rad) according to manufacturer's instructions.
# [2] = system: HLA-A2 (HHD) transgenic mice; assay: In vivo cross-priming and induction of LP-specific CD4^+ T cells, ex vivo IFN-gamma ELISPOT; set-up: species or system mouse
# Protocol: HLA-A2 (HHD) transgenic mice (Tgm) were kindly provided by Dr. F. A. Lemonnier (Pascolo S, et al., J Exp Med 1997; 185:2043-51) Mice were subcutaneously injected at the tail base with GPC3-LP2 solution or A2-GPC3-SP solution (HLA-A2 Tgm, 50 micro-g/mouse or 0.5 mM/100 micro-L) emulsified in incomplete Freund's adjuvant (IFA) at 7-days intervals. Equimolar (0.5 mM/100 micro-L) dose of SP and LP2 was used to compare their immunogenicity. IFA-PBS was used as negative control and assayed as previously described (Tomita Y, et al. Clin Cancer Res 2013; 19:4508-20; Tosolini M, et al. Cancer Res 2011; 71:1263-71; Tomita Y, et al., Oncoimmunology 2014; 3:e28100-15.).
# [3] = system: A2-GPC3-SP-specific bulk CTLs; assay: In vitro cross-presentation assay using human DCs, IFN-gamma ELISPOT; format: cell-based; conditions: autologous DC, donor HD5 (HLA-A2+)
# Protocol: Yuba et al. (Yuba E, et al., Biomaterials 2013; 34:3042-52) developed the pH-sensitive modified liposomes containing the tumor antigen to enhance the efficiency of the cross-presentation in DCs. To assess the cross-presentation of GPC3-LP2: GPC3137-161, DCs pulsed with LP encapsulated in liposome were utilized. Liposome was prepared as previously described (Yuba E, et al., Biomaterials 2013; 34:3042-52). Briefly, peptide (0.22 micro-mol) dissolved in N, N-dimethylformamide or deionized water (5 mg/mL) was added to a dry, thin membrane of EYPC/CHexPG-PE (97/3, mol/mol; 6.25 micro-mol), and then the solvent was removed under vacuum for more than 3 h. Obtained lipid and peptide mixture was dispersed in PBS (500 micro-L) with 2 min-sonication using a bath-type sonicator, affording a peptide-incorporated liposome suspension. The liposome suspension was further hydrated by freezing and thawing, and was extruded through a polycarbonate membrane with a pore size of 100 nm. […] Lipid and peptide concentrations were determined by Phospholipids C (Wako) and Micro BCA Protein assay (Thermo Scientific), respectively.
# Immature DCs were prepared from positively isolated CD14+ cells (day 0). […] The number of IFN-gamma producing-A2-GPC3144-152-SP-specific bulk CTLs in response to DCs loaded with GPC3-LP2 encapsulated in liposome was counted by an ELISPOT assay. […]
# [4] = system: GPC3-LPs-specific Th-cells; assay: Natural processing and presentation of GPC3-LPs by DCs loaded with recombinant GPC3 protein, IFN-gamma ELISPOT; format: cell-based; conditions: in vitro; LP-specific Th cells from HD10, autologous DCs loaded with recombinant human GPC3 protein
# Protocol: The immune response of Th cells to antigen-presenting cells (APCs) pulsed with peptides (10 micro-g/ml) or proteins (10 micro-g/ml) were assessed by IFN-gamma enzyme-linked immunospot (ELISPOT) assays (BD Biosciences) as described previously (Tomita Y, et al. Cancer Sci 2011; 102:697-705). Briefly, the frequency of peptide-specific CD4^+ T-cells producing IFN-gamma per 3×10^4 bulk CD4^+ T-cells upon stimulation with peptide-pulsed PBMCs (3×10^4), or 1×10^4 bulk CD4^+ T-cells upon stimulation with peptide-pulsed and HLA-DR-expres sing L-cells (5×10^4/well) or RM3 (5×10^4/well) was analyzed as described previously (Tosolini M, et al. Cancer Res 2011; 71:1263-71).
# It was assessed whether DCs take up and process the GPC3 protein to stimulate GPC3-LPs-specific Th-cells that were generated by stimulation with LPs. DCs loaded with recombinant GPC3 protein were prepared and used as APCs in IFN-gamma ELISPOT assays (Tomita Y, et al. Cancer Sci 2011; 102:71-8; Harao M, et al., Int J Cancer 2008; 123:2616-25).
sequence,measurement,setting,value
LTPQAFEFVGEFFTDVSLYILGSDI (Th1 epitope peptide) [GPC3-LP2],"Cytokines (IFN-gamma, TNF-alpha, IL-2, GM-CSF and MIP1beta) produced by LP-specific T cell clones",[1],large amount
same,IFN-gamma production by CD8^+ T-cells of vaccinated mice in response to BM-DCs pulsed with A2-GPC3-SP,"[2]; HLA-A2 Tgm immunized twice, emulsified in IFA",produced IFN-gamma specifically
same,IFN-gamma production by CD4^+ T-cells of immunized mice in response to BMDCs pulsed with GPC3-LP2,[2]; HLA-A2 Tgm immunized with GPC3-LP2 in IFA,produced IFN-gamma specifically
same,Number of A2-GPC3-SP-specific CTL as compared with mice immunized with A2-GPC3-SP,"[2]; HLA-A2 Tgm, equimolar dose, emulsified in IFA",increased
same,Restriction molecule,[2]; Tgm (transgenic mouse),I-A^b
same,Immune response,"[2]; Tgm (transgenic mouse), mice MHC I-A^b",positive
same,Cross-presentation of the LP by DCs to A2-GPC3-SP-specific HLA-A2-restricted CTLs (IFN-gamma production),[3],could not cross-present
same,Natural processing,[4],recognized autologous DCs; also recorded: positive
